Results taken from US20090192123A1, “Use of dipyridamole or mopidamole for treatment and prevention of thrombo-embolic diseases and disorders caused by excessive formation of Thrombin and/or by elevated expression of Thrombin receptors” (BOEHRINGER INGELHEIM INTERNATIONAL GMBH, priority 2003, published 2009).

Legend:
[1] = tested on: Thrombin receptor (PAR-1); assay: Thrombin receptor (PAR-1) expression on platelets of post-stroke patients during treatment, flow cytometry with antibodies; assay type: in vivo, human; settings: for Thrombin receptor (PAR-1) SPAN 12 (intact receptor) / Thrombin receptor (PAR-1) WEDE 15 (cleaved receptor): platelets of stroke patients, relative number, mean ± SD; for Change of intact (complete) and cleaved Thrombin receptor expression on platelets, in words: stroke patients, course of treatment of 30 days / one month, platelets ex vivo
Procedure: In order to study the inhibition of Thrombin receptor expression, patients surviving a stroke have been treated with conventional antiplatelet therapy (oral ASA) or a combination of Dipyridamole and ASA (Aggrenox) and thrombin receptor expression was measured during the course of treatment of one month. The expression of the complete as well as the cleaved Thrombin receptor was measured by flow cytometry using well established antibody technology on platelets after venipuncture.
Inhibition of Thrombin Receptor Expression in Platelets—by the Dipyridamole
Table 1 represents the mean and standard deviation of the relative numbers of expressed intact as well as cleaved Thrombin receptors on platelets over time after initiation of treatment with either ASA or the combination of Dipyridamole and ASA.

[2] = ESPS-2 clinical study, compared with low-dose aspirin / aspirin alone; cited from earlier work
[3] = Baseline (n = 15), flow cytometry

SMILES | Thrombin receptor (PAR-1) SPAN 12 (intact receptor) ([1]; 24 hr of treatment (n = 15)) | Thrombin receptor (PAR-1) WEDE 15 (cleaved receptor) ([1]; 24 hr of treatment (n = 15)) | Thrombin receptor (PAR-1) SPAN 12 (intact receptor) ([1]; 3 days of treatment (n = 15)) | Thrombin receptor (PAR-1) WEDE 15 (cleaved receptor) ([1]; 3 days of treatment (n = 15)) | Thrombin receptor (PAR-1) SPAN 12 (intact receptor) ([1]; 7 days of treatment (n = 15)) | Thrombin receptor (PAR-1) WEDE 15 (cleaved receptor) ([1]; 7 days of treatment (n = 15)) | Thrombin receptor (PAR-1) SPAN 12 (intact receptor) ([1]; 15 days of treatment (n = 14)) | Thrombin receptor (PAR-1) WEDE 15 (cleaved receptor) ([1]; 15 days of treatment (n = 14)) | Thrombin receptor (PAR-1) SPAN 12 (intact receptor) ([1]; 30 days of treatment (n = 12)) | Thrombin receptor (PAR-1) WEDE 15 (cleaved receptor) ([1]; 30 days of treatment (n = 12)) | Thrombin receptor (PAR-1) SPAN 12 (intact receptor) [1, 3] | Thrombin receptor (PAR-1) WEDE 15 (cleaved receptor) [1, 3] | Change of intact (complete) and cleaved Thrombin receptor expression on platelets, in words [1] | Reduction of stroke risk, in words [2]
CC(=O)Oc1ccccc1C(=O)O [ASA, acetylsalicalic acid] | 37 ± 7 | 21.9 ± 4.6 | 28 ± 9 | 15.3 ± 3.3 | 24 ± 5 | 17.1 ± 6.1 | 26 ± 4.* | 16.9 ± 7.5 | 22 ± 7 | 14.2 ± 5.0 | 34 ± 7 | 21.0 ± 5.3 | mild reduction | –
OCCN(CCO)c1nc(N2CCCCC2)c2nc(N(CCO)CCO)nc(N3CCCCC3)c2n1 [Dipyridamole, 2,6-bis(diethanolamino)-4,8-dipiperidino-pyrimido[5,4-d]pyrimidine] | – | – | – | – | – | – | – | – | – | – | – | – | significant reduction | as effective as low-dose aspirin
